Experimental data: article doi:10.1101/2025.08.06.668955, “High-Affinity, Structure-Validated and Selective Macrocyclic Peptide Tools for Chemical Biology Studies of Huntingtin” (bioRxiv, 2025)
Where a SMILES comes first, the peptide text is derived from it. Bridges are numbered along the chain shown (N, C = ends). Primed or numbered codes have the meaning given here. Where no end group is shown, it is not given here. [ ]: non-standard residue; d: D form. FITC′ = not defined here

Columns and labels:
HTTQ23-HAP40 = biological target: T1, HTTQ23-HAP40 (Homo sapiens, UniProt P23610+P42858, INS38QQ); assay: Thermal shift assay (DSF), HTTQ23-HAP40; type: binding; settings: SYPRO Orange, 0.25 mg/mL protein, macrocycle up to 10 μM, 2.5% DMSO, n=3
T1 construct: Full-length wildtype HTT with a polyQ tract of 23 glutamines; FLAG; made in house; host or cells: Sf9 insect cells (baculovirus)
Protocol: In an Axygen® 384-well PCR microplate (REF# PCR-384-LC480-W-NF, Corning), samples were mixed to yield a final concentration of 0.25 mg/mL Q54 or Q23/HAP40, a 5-pt 2-fold serial dilution of each macrocycle (top concentration of 10 μM, 2.5% DMSO), and 5X SYPRO™ Orange (CAT# S6650, Thermo Fisher Scientific) in buffer (20 mM HEPES pH 7.4, 150 mM NaCl, 1 mM TCEP, 0.005% Tween-20). Differential Scanning Fluorimetry (DSF) was performed using a LightCycler® 480 (Roche LifeSciences) set to a 4 °C/min temperature ramp (20–95 °C) and fluorescence detection at 580 nm. Melting temperatures (Tm) were obtained from the minima of the negative derivative of each curve. The propagated error of the thermal shift (ΔTm) was calculated from the standard deviation of each Tm mean (n=3). To ensure a maximally macrocycle-bound fraction (KD ~10 nM; ~100% bound) at 0.25 mg/mL HTT or HTT-HAP40 (~0.7 μM), the upper limit of macrocycle tested was 10 μM.
98 Supplementary Figure. 10. Thermal shift (ΔTm) induced by macrocycle binding. Melting
99 temperature of HTTQ54 (left) with HL5 or HL2 minus HTTQ54 with DMSO (46.5 °C), and (right)
100 HTTQ23-HAP40 with HD4, HL2, HL5, HHD2, HHD3, or HHL1 minus HTTQ23-HAP40 with DMSO
101 (51.0 °C). ΔTm significance was determined using an unpaired t-test with Welch correction,
102 comparing to the mean Tm of Q54 or Q23-HAP40 with DMSO; *P < 0.05, **P < 0.01, ***P <
103 0.001. The summary table reports the ΔTm and exact P value at the highest concentration tested
(1 picture or pasted object on this page, not shown here)

HAP40 = assay: Macrocycle precipitation (MP), co-purification of HAP40, LC-MS/MS; type: binding, human; settings: HEK293T lysate versus HTT CRISPR knockout line
From the text: To assess macrocycle selectivity and identify potential HTT interacting proteins, we performed LC-MS/MS analysis of the proteins in the MP eluates. To control for non-specific binding, we performed MPs using lysates from a HTT CRISPR knockout cell line ([Jung et al., 2021]). Across all macrocycles, HTT emerged as the most enriched protein after background subtraction (Figure 5b). Given we performed affinity purification using macrocycles targeting distinct HTT surfaces, we hypothesized that any real HTT protein binder might be co-purified with two or more macrocycles. […] In contrast, HAP40 was not enriched by HL5, consistent with its specificity for apo HTT.
(§1) Macrocycles were pre-conjugated to streptavidin beads (Cytiva, 17-5113-01) by incubating with a 30 μL slurry of beads per macrocycle purification (MP) in Lysis Buffer (10 mM Tris-HCl, pH 7.9, 150 mM NaCl, 0.1% NP-40, 1:500 protease inhibitor cocktail (Sigma-Aldrich), 1:1,000 benzonase nuclease, and 2 mM MgCl2) for 1 hour at 4°C. A concentration of 1.25 μM macrocycle was used for conjugation. After incubation, beads were washed three times with 500 μL Lysis Buffer to remove unbound macrocycles and resuspended in 500 μL of lysate at 4 mg/mL protein concentration.
(§2) Cells were harvested by centrifugation at 1,500 rpm for 5 minutes, washed twice with PBS, and snap-frozen. Cell pellets were then resuspended in 500 μL of Lysis Buffer (as described above) and incubated on an end-over-end rotator at 4°C for 1 hour. Lysates were clarified by centrifugation at 20,000g for 15 minutes at 4°C, and the supernatant was transferred to fresh 1.5 mL Eppendorf tubes. Protein concentration was determined by BCA assay (Thermo Fisher Scientific, 23225), yielding approximately 4 mg of protein on average. Lysates were diluted to a final concentration of 4 mg/mL for use, providing […] of total protein per MP.
(§3) Macrocycle-conjugated beads were incubated with 2 mg of lysate in Lysis Buffer for 1 hour at 4°C with rotation. After incubation, beads were collected by centrifugation at 3,000 rpm, and the flow-through was saved for analysis. Beads were then washed sequentially with 1 mL of Wash Buffer 1 (10 mM Tris-HCl, pH 7.9, 100 mM NaCl, 0.1% NP-40) and twice with Wash Buffer 2 (Wash Buffer 1 without detergent). Lastly, bound proteins were eluted from the beads with 200 μL of 0.5 M NH4OH and flash-frozen in liquid nitrogen.
All sample preparation, LC MS/MS data collection, and MS data searches were carried out at the SPARC BioCentre at The Hospital for Sick Children (Toronto, ON, Canada). […] Samples were analyzed by liquid chromatography tandem mass spectrometry (LC-MS/MS) using an EASY-nanoLC 1200 system with a 1 h analysis and an Orbitrap Fusion™ Lumos™ Tribrid™ Mass Spectrometer (Thermo Fisher Scientific). […]

endogenous HTT = assay: Macrocycle precipitation (MP) of endogenous HTT from HEK293T cell extracts; type: binding, human; settings: HEK293 cell lysate, 2 mg protein, streptavidin beads conjugated at 1.25 μM macrocycle, 1 hour at 4°C
Protocol: To explore binding and selectivity within a more physiological context, we used biotinylated derivatives of macrocycles to affinity purify HTT from cellular extracts, which we term “macrocycle precipitations” (MPs)(Figure 5a). The macrocycles were joined to the biotin using either a 2 amino acid linker (AK-Bio) or a PEG11 spacer (PEG11-Bio) (Supplementary Figure 12a). Extracts were prepared from HEK293T cells, including HTT knock-out lines and streptavidin beads were used to attempt to capture macrocycle–HTT complexes, and potentially associated binding partners.
as §1, §2, §3
All sample preparation, LC MS/MS data collection, and MS data searches were carried out at the SPARC BioCentre at The Hospital for Sick Children (Toronto, ON, Canada). Samples were reduced with DTT (10 mM, 60°C, 1 hour), alkylated with iodoacetamide (20 mM, room temperature, 45 min, dark), and digested overnight at 37°C with trypsin ([…]; Pierce). Peptides were dried by vacuum centrifugation, desalted on C18 ziptips (Millipore) using a DigestPro MSi (Intavis Bioanalytical Instruments), and dried again by vacuum centrifugation before resuspension in Buffer A (0.1% formic acid (v/v) in water). Samples were analyzed by liquid chromatography tandem mass spectrometry (LC-MS/MS) using an EASY-nanoLC 1200 system with a 1 h analysis and an Orbitrap Fusion™ Lumos™ Tribrid™ Mass Spectrometer (Thermo Fisher Scientific). The LC portion of the analysis consisted of a 18 min linear gradient running 3–20% of Buffer A to Buffer B (0.1% formic acid (v/v) in […]), followed by a 31 min linear gradient running 20–35% of Buffer A to Buffer B, a 2 min ramp to 100% Buffer B and 9 min hold at 100% Buffer B, all at a flow rate of 250 nL/min. Samples were loaded into a […] × 2 cm Acclaim PepMap 100 Pre-column followed by a 75 μm × 50 cm PepMax RSLC EASY-Spray analytical column filled with […] C18 beads (Thermo Fisher Scientific). MS1 acquisition resolution was set to 120000 with an automatic gain control (AGC) target value of 4 × 105 and maximum ion injection time (IT) of 50 ms for a scan range of m/z 375–1500, with dynamic exclusion set to 10 s. Isolation for MS2 scans was performed in the quadrupole with an isolation window of m/z 0.7. […]

[1] = biological target: C-terminally biotinylated HTTQ23 in complex with HAP40 (UniProt P23610 1-371, biotin on the C-terminal Avi-tag); assay: SPR
HTTQ54-HAP40 = HTTQ54-HAP40 (UniProt P23610 1-371); assay: FP
Chain of HTTQ54-HAP40 (P42858 other isoform, or with tags, fused parts or gaps, chain 1 of 2): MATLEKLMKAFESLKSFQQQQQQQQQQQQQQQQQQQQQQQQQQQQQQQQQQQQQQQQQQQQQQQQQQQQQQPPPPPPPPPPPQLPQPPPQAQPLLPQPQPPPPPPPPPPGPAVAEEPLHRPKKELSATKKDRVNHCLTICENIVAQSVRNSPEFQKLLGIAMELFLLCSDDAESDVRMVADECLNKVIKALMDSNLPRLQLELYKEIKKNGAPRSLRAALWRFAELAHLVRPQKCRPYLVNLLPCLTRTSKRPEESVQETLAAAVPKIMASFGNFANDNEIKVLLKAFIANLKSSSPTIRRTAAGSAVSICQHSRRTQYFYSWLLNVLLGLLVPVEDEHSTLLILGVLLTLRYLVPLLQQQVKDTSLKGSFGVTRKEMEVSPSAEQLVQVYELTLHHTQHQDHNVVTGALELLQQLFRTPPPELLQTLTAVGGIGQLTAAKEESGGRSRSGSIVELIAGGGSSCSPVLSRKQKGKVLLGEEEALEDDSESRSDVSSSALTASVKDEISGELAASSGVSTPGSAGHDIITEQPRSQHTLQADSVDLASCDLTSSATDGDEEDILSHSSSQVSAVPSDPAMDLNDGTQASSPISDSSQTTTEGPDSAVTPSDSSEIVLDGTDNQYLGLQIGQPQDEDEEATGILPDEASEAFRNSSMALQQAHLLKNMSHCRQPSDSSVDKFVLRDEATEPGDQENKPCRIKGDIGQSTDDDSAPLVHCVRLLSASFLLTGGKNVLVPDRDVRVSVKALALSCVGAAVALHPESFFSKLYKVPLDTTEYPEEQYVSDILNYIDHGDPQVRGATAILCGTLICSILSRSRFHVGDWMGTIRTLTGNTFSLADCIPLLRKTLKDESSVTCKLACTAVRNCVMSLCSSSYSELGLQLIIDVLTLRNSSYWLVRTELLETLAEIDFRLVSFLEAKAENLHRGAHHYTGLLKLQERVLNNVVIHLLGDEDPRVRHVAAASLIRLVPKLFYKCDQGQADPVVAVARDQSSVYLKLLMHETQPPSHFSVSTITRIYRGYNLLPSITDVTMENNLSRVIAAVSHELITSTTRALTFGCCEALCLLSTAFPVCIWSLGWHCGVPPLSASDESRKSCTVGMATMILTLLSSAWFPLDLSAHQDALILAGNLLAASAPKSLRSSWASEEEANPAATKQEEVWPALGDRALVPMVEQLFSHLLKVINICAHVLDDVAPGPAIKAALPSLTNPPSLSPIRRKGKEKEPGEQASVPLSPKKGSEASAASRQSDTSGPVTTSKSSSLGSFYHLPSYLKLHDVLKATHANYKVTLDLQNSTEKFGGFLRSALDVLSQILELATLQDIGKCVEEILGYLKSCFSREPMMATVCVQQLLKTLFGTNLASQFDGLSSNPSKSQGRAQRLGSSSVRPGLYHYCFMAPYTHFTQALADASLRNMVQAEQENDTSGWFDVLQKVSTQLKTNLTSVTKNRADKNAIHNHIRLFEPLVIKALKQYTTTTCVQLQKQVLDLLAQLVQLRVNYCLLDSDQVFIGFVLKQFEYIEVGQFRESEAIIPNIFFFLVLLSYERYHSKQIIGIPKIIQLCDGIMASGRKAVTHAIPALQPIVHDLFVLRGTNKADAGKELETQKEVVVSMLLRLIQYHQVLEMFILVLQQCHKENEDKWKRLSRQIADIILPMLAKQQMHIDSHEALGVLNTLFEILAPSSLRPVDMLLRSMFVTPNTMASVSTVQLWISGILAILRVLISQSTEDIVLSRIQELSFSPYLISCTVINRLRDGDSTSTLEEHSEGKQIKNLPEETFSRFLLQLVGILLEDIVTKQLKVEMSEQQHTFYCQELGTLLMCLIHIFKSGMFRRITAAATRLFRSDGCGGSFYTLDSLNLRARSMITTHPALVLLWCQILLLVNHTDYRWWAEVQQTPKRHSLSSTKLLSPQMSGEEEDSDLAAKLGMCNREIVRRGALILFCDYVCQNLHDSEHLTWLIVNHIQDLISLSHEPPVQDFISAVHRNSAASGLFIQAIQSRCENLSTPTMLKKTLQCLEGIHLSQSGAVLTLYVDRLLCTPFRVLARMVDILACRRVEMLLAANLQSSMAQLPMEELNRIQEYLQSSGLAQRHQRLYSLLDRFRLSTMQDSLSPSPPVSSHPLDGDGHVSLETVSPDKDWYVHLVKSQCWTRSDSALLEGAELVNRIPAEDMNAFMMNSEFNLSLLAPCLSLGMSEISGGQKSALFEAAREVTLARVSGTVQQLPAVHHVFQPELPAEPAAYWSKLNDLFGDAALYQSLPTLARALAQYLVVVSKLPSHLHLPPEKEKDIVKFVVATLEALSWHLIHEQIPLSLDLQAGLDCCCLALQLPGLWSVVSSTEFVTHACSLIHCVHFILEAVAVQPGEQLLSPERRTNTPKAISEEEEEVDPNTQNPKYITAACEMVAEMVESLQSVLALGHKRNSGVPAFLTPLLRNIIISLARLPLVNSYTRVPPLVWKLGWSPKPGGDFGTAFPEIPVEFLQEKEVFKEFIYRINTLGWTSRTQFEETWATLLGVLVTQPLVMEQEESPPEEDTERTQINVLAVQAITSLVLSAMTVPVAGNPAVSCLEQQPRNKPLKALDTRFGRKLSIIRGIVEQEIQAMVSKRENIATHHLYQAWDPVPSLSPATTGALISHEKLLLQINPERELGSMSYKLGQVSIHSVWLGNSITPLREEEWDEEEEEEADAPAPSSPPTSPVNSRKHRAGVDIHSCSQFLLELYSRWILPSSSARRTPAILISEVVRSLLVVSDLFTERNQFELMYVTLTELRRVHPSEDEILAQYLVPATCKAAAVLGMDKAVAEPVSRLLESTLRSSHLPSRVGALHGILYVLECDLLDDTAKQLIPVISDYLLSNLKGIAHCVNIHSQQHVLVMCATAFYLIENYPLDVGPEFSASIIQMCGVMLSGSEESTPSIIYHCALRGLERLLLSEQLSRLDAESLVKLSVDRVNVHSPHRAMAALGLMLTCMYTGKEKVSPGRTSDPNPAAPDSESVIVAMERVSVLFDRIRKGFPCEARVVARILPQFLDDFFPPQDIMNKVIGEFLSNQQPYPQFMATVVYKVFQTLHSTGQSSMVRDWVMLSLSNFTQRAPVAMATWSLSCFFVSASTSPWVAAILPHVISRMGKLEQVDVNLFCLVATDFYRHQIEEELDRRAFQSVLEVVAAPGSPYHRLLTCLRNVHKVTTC
Chain of HTTQ54-HAP40 (P23610 whole entry, chain 2 of 2): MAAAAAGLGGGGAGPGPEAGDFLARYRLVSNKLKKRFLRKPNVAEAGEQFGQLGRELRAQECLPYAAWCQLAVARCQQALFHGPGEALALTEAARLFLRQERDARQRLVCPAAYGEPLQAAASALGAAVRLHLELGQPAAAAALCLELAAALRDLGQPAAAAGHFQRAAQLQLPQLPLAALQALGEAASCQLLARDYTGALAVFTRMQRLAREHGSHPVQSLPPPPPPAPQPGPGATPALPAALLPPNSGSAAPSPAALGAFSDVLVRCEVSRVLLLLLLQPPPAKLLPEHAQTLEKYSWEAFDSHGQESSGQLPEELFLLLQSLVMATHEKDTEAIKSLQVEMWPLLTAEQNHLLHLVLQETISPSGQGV

Molecule	Capture of endogenous HTT by immobilized biotinylated macrocycle (endogenous HTT)	other results
CC[C@H](C)[C@H](NC(=O)CNC(=O)[C@@H](NC(=O)[C@H](CCC(N)=O)NC(=O)[C@H](CCCCN)NC(=O)[C@H](CC(N)=O)NC(=O)[C@@H](NC(=O)[C@H](CCC(=O)O)NC(=O)[C@@H]1CSCC(=O)N[C@H](Cc2ccc(O)cc2)C(=O)N[C@@H](CC(=O)O)C(=O)N[C@@H]([C@@H](C)CC)C(=O)N[C@@H](Cc2c[nH]c3ccccc23)C(=O)N1)[C@@H](C)O)[C@@H](C)O)C(=O)N[C@@H](CC(C)C)C(=O)N[C@H](C(=O)N[C@@H](CC(C)C)C(=O)N[C@@H](CS)C(N)=O)C(C)C [HD4] ({CH2CO}-[dY]DIWCETNKQTGILVLC-NH2; thioether N-5)	–	Thermal shift (ΔTm) of HTTQ23-HAP40 induced by macrocycle (HTTQ23-HAP40): No significant thermal effects; Enrichment of HAP40 in macrocycle pulldowns (HAP40): consistently enriched
HD4-AK-Bio: biotinylated derivative of HD4 with a 2 amino acid linker (AK-Bio) (Ac-[dY]DIWCETNKQTGILVLCAK; thioether (positions not given here); also: thioether to downstream Cys, which of Cys5/Cys17 not given here, biotin joined via AK linker, site not given here)	captured	–
HHD3-AK-Bio: biotinylated derivative of HHD3 with a 2 amino acid linker (AK-Bio) ({CH2CO}-[dY]TRHWQNNWWILYHEFCAK; thioether N-17 (inferred); also: biotin joined via AK linker, site not given here)	captured	–
HHL1-AK-Bio: biotinylated derivative of HHL1 with a 2 amino acid linker (AK-Bio) ({CH2CO}-YLIRSSFNWFVFVEVPCAK; thioether N-17 (inferred); also: biotin joined via 2 amino acid linker AK)	no detectable binding	–
HHL1-PEG11-Bio: biotinylated derivative of HHL1 with a PEG11 spacer ({CH2CO}-YLIRSSFNWFVFVEVPC; thioether N-17 (inferred); also: biotin joined via PEG11 spacer)	no detectable binding	–
HL2-PEG11-Bio: biotinylated derivative of HL2 with a PEG11 spacer ({CH2CO}-YTARYLTLGTLHYKC; thioether N-15 (inferred); also: biotin joined via PEG11 spacer)	captured	–
HL5-PEG11-Bio: biotinylated derivative of HL5 with a PEG11 spacer ({CH2CO}-YTHFQVAPWIQSLC; thioether N-14 (inferred); also: biotin joined via PEG11 spacer)	captured	–
{CH2CO}-YTARYLTLGTLHYKC (thioether N-15 (inferred)) [HL2]	–	Kd [1]: 2 nM
{CH2CO}-YTARYLTLGTLHYKC-{FITC′} (thioether N-15 (inferred); not fully specified) [FITC-labeled HL2]	–	Kd (HTTQ54-HAP40): 4 nM
{CH2CO}-YLIRSSFNWFVFVEVPC-{FITC′} (thioether N-17 (inferred); not fully specified) [FITC-labeled HHL1]	–	Kd (HTTQ54-HAP40): 2.6 nM
{CH2CO}-[dY]TRHWQNNWWILYHEFC-{FITC′} (thioether N-17 (inferred); not fully specified) [FITC-labeled HHD3]	–	Kd (HTTQ54-HAP40): 2.6 nM
